# Experimental data published in PubChem BioAssay (NCI).
#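 Following 48 hours of exposure in 96-well plates, responses at five concentrations were used to interpolate endpoints linearly. At the GI50, growth is halved. At the TGI there is no net growth.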
# Test system: CAKI-1 renal
# Assay: NCI tumour cell line growth inhibition, 48 h
Compound,TGI [µM],GI50 [µM]
COCOc1ccc(C2(O)Oc3cc(OCOC)ccc3C2C)c(O)c1 (stereo not given),30.4,–
C[C@H]1CCC/C=C/[C@@H]2C[C@H](O)C[C@H]2[C@H](O)[C@@H](SCC(O)CO)CC(=O)O1 (stereo not given in full),67.6,31.7
CC[C@@]1(O)C(=O)OCc2c1cc1n(c2=O)Cc2c-1nc1cc(F)c(C)c3c1c2[C@@H](N)CC3,0.101,< 0.01
CC/C=C/C/C=C/C/C=C/C/C=C/C/C=C/C/C=C/CCC(=O)Nc1ccn([C@@H]2O[C@H](CO)[C@@H](O)C2(F)F)c(=O)n1,14.8,0.0341
C/C(=N\NC(=S)N1CC2CCC(CC2)C1)c1ccccn1,3.89,0.27
O=C(NCc1ccc(S(=O)(=O)c2cc(F)cc(F)c2)cc1)c1ccc2nccn2c1,> 100,> 43.3
NC(=S)N/N=C/c1cc(-c2cccc(N)c2)ccn1,10.3,0.972
CO/N=C(/C)c1cccc(Nc2cc(-c3ccccc3)nc3ccc(OC)cc23)c1,10.9,3.18
Cc1nn(C(=O)c2ccc(Cl)cc2)c2c1C(c1ccc(O)cc1)SC(N)=N2 (stereo not given),> 10,–
O=[N+]([O-])c1ccc(CSCc2ccc(Cl)cc2)cc1,> 100,–

# Test system: DU-145 prostate
# Assay: NCI tumour cell line growth inhibition, 48 h
Compound,TGI [µM],GI50 [µM]
COCOc1ccc(C2(O)Oc3cc(OCOC)ccc3C2C)c(O)c1 (stereo not given),25.8,–
C[C@H]1CCC/C=C/[C@@H]2C[C@H](O)C[C@H]2[C@H](O)[C@@H](SCC(O)CO)CC(=O)O1 (stereo not given in full),39.2,17.8
CC[C@@]1(O)C(=O)OCc2c1cc1n(c2=O)Cc2c-1nc1cc(F)c(C)c3c1c2[C@@H](N)CC3,> 100,< 0.01
CC/C=C/C/C=C/C/C=C/C/C=C/C/C=C/C/C=C/CCC(=O)Nc1ccn([C@@H]2O[C@H](CO)[C@@H](O)C2(F)F)c(=O)n1,24.9,0.043
C/C(=N\NC(=S)N1CC2CCC(CC2)C1)c1ccccn1,2.83,0.408
O=C(NCc1ccc(S(=O)(=O)c2cc(F)cc(F)c2)cc1)c1ccc2nccn2c1,> 100,0.0773
NC(=S)N/N=C/c1cc(-c2cccc(N)c2)ccn1,12,1.25
CO/N=C(/C)c1cccc(Nc2cc(-c3ccccc3)nc3ccc(OC)cc23)c1,31.5,12
Cc1nn(C(=O)c2ccc(Cl)cc2)c2c1C(c1ccc(O)cc1)SC(N)=N2 (stereo not given),> 10,–
O=[N+]([O-])c1ccc(CSCc2ccc(Cl)cc2)cc1,> 100,–

# Test system: HOP-62 NSCLC
# Assay: NCI tumour cell line growth inhibition, 48 h
Compound,TGI [µM],GI50 [µM]
COCOc1ccc(C2(O)Oc3cc(OCOC)ccc3C2C)c(O)c1 (stereo not given),32,–
C[C@H]1CCC/C=C/[C@@H]2C[C@H](O)C[C@H]2[C@H](O)[C@@H](SCC(O)CO)CC(=O)O1 (stereo not given in full),> 100,33.2
CC[C@@]1(O)C(=O)OCc2c1cc1n(c2=O)Cc2c-1nc1cc(F)c(C)c3c1c2[C@@H](N)CC3,0.159,< 0.01
CC/C=C/C/C=C/C/C=C/C/C=C/C/C=C/C/C=C/CCC(=O)Nc1ccn([C@@H]2O[C@H](CO)[C@@H](O)C2(F)F)c(=O)n1,6.55,0.0293
C/C(=N\NC(=S)N1CC2CCC(CC2)C1)c1ccccn1,1.69,0.142
O=C(NCc1ccc(S(=O)(=O)c2cc(F)cc(F)c2)cc1)c1ccc2nccn2c1,74,23
NC(=S)N/N=C/c1cc(-c2cccc(N)c2)ccn1,> 36.9,2.44
CO/N=C(/C)c1cccc(Nc2cc(-c3ccccc3)nc3ccc(OC)cc23)c1,6.17,2.37
Cc1nn(C(=O)c2ccc(Cl)cc2)c2c1C(c1ccc(O)cc1)SC(N)=N2 (stereo not given),> 10,–
O=[N+]([O-])c1ccc(CSCc2ccc(Cl)cc2)cc1,> 100,–

# Test system: HT29 colon
# Assay: NCI tumour cell line growth inhibition, 48 h
Compound,TGI [µM],GI50 [µM]
COCOc1ccc(C2(O)Oc3cc(OCOC)ccc3C2C)c(O)c1 (stereo not given),32.2,–
C[C@H]1CCC/C=C/[C@@H]2C[C@H](O)C[C@H]2[C@H](O)[C@@H](SCC(O)CO)CC(=O)O1 (stereo not given in full),40.8,10.2
CC[C@@]1(O)C(=O)OCc2c1cc1n(c2=O)Cc2c-1nc1cc(F)c(C)c3c1c2[C@@H](N)CC3,> 100,< 0.01
CC/C=C/C/C=C/C/C=C/C/C=C/C/C=C/C/C=C/CCC(=O)Nc1ccn([C@@H]2O[C@H](CO)[C@@H](O)C2(F)F)c(=O)n1,19.5,0.138
C/C(=N\NC(=S)N1CC2CCC(CC2)C1)c1ccccn1,1.67,< 0.014
O=C(NCc1ccc(S(=O)(=O)c2cc(F)cc(F)c2)cc1)c1ccc2nccn2c1,> 100,0.0885
NC(=S)N/N=C/c1cc(-c2cccc(N)c2)ccn1,> 100,3.72
CO/N=C(/C)c1cccc(Nc2cc(-c3ccccc3)nc3ccc(OC)cc23)c1,> 100,34.1
Cc1nn(C(=O)c2ccc(Cl)cc2)c2c1C(c1ccc(O)cc1)SC(N)=N2 (stereo not given),> 10,–
O=[N+]([O-])c1ccc(CSCc2ccc(Cl)cc2)cc1,> 100,–

# Test system: NCI-H226 lung
# Assay: NCI tumour cell line growth inhibition, 48 h
Compound,TGI [µM],GI50 [µM]
COCOc1ccc(C2(O)Oc3cc(OCOC)ccc3C2C)c(O)c1 (stereo not given),31.2,–
C[C@H]1CCC/C=C/[C@@H]2C[C@H](O)C[C@H]2[C@H](O)[C@@H](SCC(O)CO)CC(=O)O1 (stereo not given in full),44,18.7
CC[C@@]1(O)C(=O)OCc2c1cc1n(c2=O)Cc2c-1nc1cc(F)c(C)c3c1c2[C@@H](N)CC3,0.0358,< 0.01
CC/C=C/C/C=C/C/C=C/C/C=C/C/C=C/C/C=C/CCC(=O)Nc1ccn([C@@H]2O[C@H](CO)[C@@H](O)C2(F)F)c(=O)n1,12.1,0.228
C/C(=N\NC(=S)N1CC2CCC(CC2)C1)c1ccccn1,1.91,0.394
O=C(NCc1ccc(S(=O)(=O)c2cc(F)cc(F)c2)cc1)c1ccc2nccn2c1,> 73.9,> 46
NC(=S)N/N=C/c1cc(-c2cccc(N)c2)ccn1,8.18,1.73
CO/N=C(/C)c1cccc(Nc2cc(-c3ccccc3)nc3ccc(OC)cc23)c1,41,15.7
Cc1nn(C(=O)c2ccc(Cl)cc2)c2c1C(c1ccc(O)cc1)SC(N)=N2 (stereo not given),> 10,–
O=[N+]([O-])c1ccc(CSCc2ccc(Cl)cc2)cc1,> 100,–
